# Measured values published in US6576663B2, “6-Keto prostaglandin F1α and analogs for treating dry eye” (Alcon, Inc., priority 1999, dated 2003).
# Columns and labels:
# [1] = test system: intestinal epithelial cells; conditions: released by intestinal epithelial cells in response to hypoxia; cited from earlier work
# [2] = test system: human conjuctival epithelium; assay: mucin production in human conjuctival epithelium; type: cell-based
smiles,measurement,setting,value
"CCCCC[C@H](O)/C=C/[C@@H]1[C@@H](CC(=O)CCCCC(=O)O)[C@@H](O)C[C@H]1O [6-keto PGF1α, 6-keto-PGF1α]",chloride secretagogue activity,[1],potent chloride secretagogue
same,mucin production,[2],stimulate mucin production
